Experimental data published in patent publication US20200404919A1, “USE OF HETEROARYL-TRIAZOLE AND HETEROARYL-TETRAZOLE COMPOUNDS AS PESTICIDES IN PLANT PROTECTION” (Bayer Aktiengesellschaft, priority 2018, published 2020).

Assays:
Assay type in all cases: in vivo
Phaedon cochleariae = Phaedon cochleariae - spray test; settings: in Brassica rapa, foliar, 168 h, read-out: mortality in %
Experimental: Phaedon cochleariae—Spray Test
(§1) To produce a suitable preparation of active compound, 1 part by weight of active compound is mixed with the stated amount of solvents and is diluted with water, containing an emulsifier concentration of 1000 ppm, to the desired concentration. Further test concentrations are prepared by dilution with emulsifier containing water.
Chinese cabbage (Brassica pekinensis) leaf disks are sprayed with a preparation of the active ingredient of the desired concentration. Once dry, the leaf disks are infested with mustard beetle larvae (Phaedon cochleariae).
After 7 days mortality in % is determined. 100% means all beetle larvae have been killed and 0% means none of the beetle larvae have been killed.

Myzus persicae = Myzus persicae - oral test; settings: 120 h, read-out: mortality in %
Experimental: To produce a suitable preparation of active compound, 1 part by weight of active compound is mixed with the stated amount of solvent, and the concentrate is diluted with water to the desired concentration. 50 μl compound solution is filled in microtiter plates and 150 μl IPL41 insect medium (33%+15% sugar) is added to obtain a total volume of 200 μl per well. Afterwards the plates are sealed with parafilm through which a mixed population of the green peach aphid (Myzus persicae) can suck on the compound preparation.
(§2) After 5 days mortality in % is determined. 100% means all aphids have been killed and 0% means none of the aphids have been killed.

Diabrotica balteata = Diabrotica balteata - spray test; settings: 168 h, 160 μg/well, germinated wheat seeds, larvae, after 7 days, read-out: efficacy in %
Experimental: Diabrotica balteata—Spray Test
as §1, with “solvent,” for “solvents”, “and the concentrate” for “and”
Soaked wheat seeds (Triticum aestivum) are placed in a multiple well plate filled with agar and some water and are incubated for 1 day to germinate (5 seeds per well). The germinated wheat seeds are sprayed with a test solution containing the desired concentration of the active ingredient. Afterwards each unit is infected with 10-20 larvae of the banded cucumber beetle (Diabrotica balteata).
After 7 days efficacy in % is determined. 100% means all the seedlings have grown up like in the untreated, uninfected control; 0% means none of the seedlings have grown.

Aphis gossypii = Aphis gossypii - oral test; settings: 120 h, read-out: mortality in %
Experimental: Solvent: 100 parts by weight acetone
To produce a suitable preparation of active compound, 1 part by weight of active compound is mixed with the stated amount of solvent, and the concentrate is diluted with water to the desired concentration.
50 μl compound solution is filled in microtiter plates and 150 μl IPL41 insect medium (33%+15% sugar) is added to obtain a total volume of 200 μl per well. Afterwards the plates are sealed with parafilm through which a mixed population of the cotton aphid (Aphis gossypii) can suck on the compound preparation.
as §2

Nilaparvata lugens = Nilaparvata lugens - spray test 1; settings: in Oryza sativa, 96 h, read-out: mortality in %, 500 g/ha, rice plants, after 4 days
Experimental: Nilaparvata lugens—Spray Test 1
as §1
Rice plants (Oryza sativa) are sprayed with a preparation of the active ingredient of the desired concentration and the plants are infested with the brown planthopper (Nilaparvata lugens).
After 4 days mortality in % is determined. 100% means all planthoppers have been killed and 0% means none of the planthoppers have been killed.

Nezara viridula = Nezara viridula - spray test 1; settings: in Hordeum vulgare, 96 h, read-out: mortality in %
Experimental: Nezara viridula—Spray Test 1
as §1, with “solvent,” for “solvents”, “and the concentrate” for “and”
Barley plants (Hordeum vulgare) infested with larvae of the southern green stink bug (Nezara viridula) are sprayed with a test solution containing the desired concentration of the active ingredient.
After 4 days mortality in % is determined. 100% means all the stink bugs have been killed; 0% means none of the stink bugs have been killed.

Spodoptera frugiperda = Spodoptera frugiperda - spray test; settings: in Zea mays, 168 h, read-out: mortality in %
Experimental: Spodoptera frugiperda—Spray Test
as §1
Maize (Zea mays) leaf sections are sprayed with a preparation of the active ingredient of the desired concentration. Once dry, the leaf sections are infested with fall armyworm larvae (Spodoptera frugiperda).
After 7 days mortality in % is determined. 100% means all caterpillars have been killed and 0% means none of the caterpillars have been killed.

Culex quinquefasciatus = assay: Culex test (CULXFAS surface treatment & contact assay); settings: 30 minutes exposure, 24 hours after contact, read-out: efficacy (mortality in percent)
Experimental: Culex Test (CULXFAS Surface Treatment & Contact Assay)
Solvent: Acetone+2000 ppm rapeseed oil methyl ester (RME)
(§3) In order to produce a sufficient, active ingredient containing solution it is necessary to solve the test-compound in an acetone/RME solvent mixture. This solution is pipetted onto a glazed tile and after evaporation of the acetone, adult mosquitoes of the species Culex quinquefasciatus (Brown house mosquito) are placed onto the dried surface. The exposure time is 30 minutes.
(§4) Mortality in percent (%) is determined 24 hours after contact to the treated surface. 100% mortality means that all test-insects are dead, whereas 0% means that not a single insect died.

[1] = test system: Blattella germanica strain PAULINIA; assay: Blattella germanica test (BLTTGE surface treatment & contact assay); settings: surface concentration 20 mg/m^2, glazed tile, 30 minutes exposure, 24 hours after contact, read-out: efficacy (mortality in percent)
Experimental: Blattella germanica Test (BLTTGE Surface Treatment & Contact Assay)
(§5) Solvent: Aceton+2000 ppm Rapeseed oil methyl ester (RME)
as §3, with “animals” for “mosquitoes”, “Blattella germanica strain PAULINIA” for “Culex quinquefasciatus (Brown house mosquito)”
as §4

[2] = test system: Musca domestica strain WHO-N; assay: Musca domestica test (MUSCDO surface treatment & contact assay); settings: 30 minutes exposure, 24 hours after contact, read-out: efficacy (mortality in percent)
Experimental: Musca domestica Test (MUSCDO Surface Treatment & Contact Assay)
as §5
as §3, with “flies” for “mosquitoes”, “Musca domestica strain WHO-N” for “Culex quinquefasciatus (Brown house mosquito)”
as §4

[3] = test system: Aedes aegypti strain MONHEIM; assay: Aedes test (AEDSAE surface treatment & contact assay); settings: 30 minutes exposure, 24 hours after contact, read-out: efficacy (mortality in percent)
Experimental: Aedes Test (AEDSAE Surface Treatment & Contact Assay)
Solvent: Aceton+2000 ppm rapeseed oil methyl ester (RME)
as §3, with “Aedes aegypti strain MONHEIM” for “Culex quinquefasciatus (Brown house mosquito)”
as §4

[4] = surface concentration 4 mg/m^2, glazed tile
[5] = surface concentration 20 mg/m^2, glazed tile

Compound | mortality at 500 g/ha (Phaedon cochleariae) | mortality at 20 ppm (Myzus persicae) | pest or weed control at 160 µg/disc, 160 µg/well (Diabrotica balteata) | mortality at 100 ppm (Aphis gossypii) | mortality at 500 g/ha (Nilaparvata lugens) | mortality at 500 g/ha (Nezara viridula) | mortality at 500 g/ha (Spodoptera frugiperda) | mortality at 4 mg/m2 (Culex quinquefasciatus; [4]) | mortality at 20 mg/m2 (Culex quinquefasciatus; [5]) | mortality at 20 mg/m2 [1] | mortality at 4 mg/m2 [2, 4] | mortality at 20 mg/m2 [2, 5] | mortality at 4 mg/m2 [3, 4] | mortality at 20 mg/m2 [3, 5]
CC(c1ncnn1-c1ncccn1)N(CC1CC1)C(=O)c1cc(Br)cc(C(F)(F)F)c1 (centres unmarked) [Compound I-62, 3-bromo-N-(cyclopropylmethyl)-N-[1-(2-pyrimidin-2-yl-1,2,4-triazol-3-yl)ethyl]-5-(trifluoromethyl)benzamide] | 100% | 100% | 100% | 100% | 90% | 90% | 100% | – | – | – | – | – | – | –
C[C@H](NC(=O)c1cc(C(F)(F)F)cc(C(F)(F)F)c1)c1ncnn1-c1ncccn1 [Compound I-66, N-[(1S)-1-(2-pyrimidin-2-yl-1,2,4-triazol-3-yl)ethyl]-3,5-bis(trifluoromethyl)benzamide] | 100% | 100% | 100% | 100% | 100% | 100% | 100% | – | – | – | – | – | – | –
Cc1nc(C(C)N(CC2CC2)C(=O)c2cc(Cl)cc(C(F)(F)F)c2)n(-c2ncc(Cl)cn2)n1 (centres unmarked) [Compound I-78, 3-chloro-N-[1-[2-(5-chloropyrimidin-2-yl)-5-methyl-1,2,4-triazol-3-yl]ethyl]-N-(cyclopropylmethyl)-5-(trifluoromethyl)benzamide] | 100% | 100% | 100% | 100% | 100% | 100% | 100% | – | – | – | – | – | – | –
CC(c1ncnn1-c1ncccn1)N(Cc1ccc(F)cc1)C(=O)c1cc(Cl)cc(C(F)(F)F)c1 (centres unmarked) [Compound I-98] | 100% | 100% | 100% | 100% | 100% | 100% | 83% | – | – | – | – | – | – | –
CC(c1ncnn1-c1ncccn1)N(Cc1ccccc1)C(=O)c1cc(Cl)cc(C(F)(F)F)c1 (centres unmarked) [Compound I-99] | 100% | 100% | 100% | 100% | 90% | 100% | 100% | – | – | – | – | – | – | –
CC(c1ncnn1-c1ncccn1)N(C)C(=O)c1cc(Cl)cc(C(F)(F)F)c1 (centres unmarked) [Compound I-100, 3-chloro-N-methyl-N-[1-(2-pyrimidin-2-yl-1,2,4-triazol-3-yl)ethyl]-5-(trifluoromethyl)benzamide] | 100% | 100% | 100% | 100% | 100% | 100% | 100% | – | – | – | – | – | – | –
CC(c1ncnn1-c1ncccc1F)N(CC1CC1)C(=O)c1cc(Cl)cc(C(F)(F)F)c1 (centres unmarked) [Compound I-106] | 100% | 100% | 100% | 100% | 100% | 100% | 100% | – | – | – | – | – | – | –
CC(NC(=O)c1cncc(C(F)(F)F)c1)c1ncnn1-c1ncccn1 (centres unmarked) [Compound I-115] | 100% | 100% | 100% | 100% | 100% | 100% | 83% | – | – | – | – | – | – | –
C[C@H](NC(=O)c1cc(Cl)cc(C(F)(F)F)c1)c1ncnn1-c1ccccn1 [Compound I-117, 3-chloro-N-[(1S)-1-[2-(2-pyridyl)-1,2,4-triazol-3-yl]ethyl]-5-(trifluoromethyl)benzamide] | 100% | 100% | 100% | 100% | 100% | 100% | 100% | – | – | – | – | – | – | –
C[C@H](NC(=O)c1cc(Cl)cc(C(F)(F)F)c1)c1ncnn1-c1ccc(Cl)cn1 [Compound I-120, 3-chloro-N-[(1S)-1-[2-(5-chloro-2-pyridyl)-1,2,4-triazol-3-yl]ethyl]-5-(trifluoromethyl)benzamide] | 100% | 100% | 100% | 100% | – | 100% | 100% | 80 to 100% | 80 to 100% | 80 to 100% | 80 to 100% | 80 to 100% | 80 to 100% | 80 to 100%
CC(c1ncnn1-c1ncccn1)N(CC(F)F)C(=O)c1cc(Cl)cc(OC(F)(F)F)c1 (centres unmarked) [Compound I-121, 3-chloro-N-(2,2-difluoroethyl)-N-[1-(2-pyrimidin-2-yl-1,2,4-triazol-3-yl)ethyl]-5-(trifluoromethoxy)benzamide] | 100% | 100% | 100% | 100% | 100% | 100% | 100% | – | – | – | – | – | – | –
CC(c1ncnn1-c1ncccn1)N(CC(F)F)C(=O)c1cccc(SC(F)(F)F)c1 (centres unmarked) [Compound I-122] | 100% | 100% | 100% | 100% | 100% | 100% | – | – | – | – | – | – | – | –
